Measured values: ChEMBL document CHEMBL1201862, “PubChem BioAssay data set” (2004)
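Test compounds were applied to cells in 96-well plates for 48 hours at 5 doses. GI50: concentration for 50% inhibition of growth.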 Calls of active or inactive are those of the source. Cut-off read from the data, not from the text of the source: active = GI50 up to about 1.1 µM and inactive = higher.

Legend:
Experiment in all cases: NCI tumour cell line growth inhibition, 48 h
A549 = tested on: A549
CCRF-CEM = tested on: CCRF-CEM
DMS-273 = tested on: DMS-273
EKVX = tested on: EKVX
HCC 2998 = tested on: HCC 2998
HCT-116 = tested on: HCT-116
HOP-62 = tested on: HOP-62
HT-29 = tested on: HT-29
NCI-H460 = tested on: NCI-H460
OVCAR-8 = tested on: OVCAR-8
RXF 393 = tested on: RXF 393
SF-295 = tested on: SF-295
SK-OV-3 = tested on: SK-OV-3
SN12C = tested on: SN12C
TK-10 = tested on: TK-10
UO-31 = tested on: UO-31
Hs-578T = tested on: Hs-578T
MDA-MB-435 = tested on: MDA-MB-435
NCI/ADR-RES = tested on: NCI/ADR-RES
SR = tested on: SR

Compound	GI50 (A549)	GI50 (CCRF-CEM)	GI50 (DMS-273)	GI50 (EKVX)	GI50 (HCC 2998)	GI50 (HCT-116)	GI50 (HOP-62)	GI50 (HT-29)	GI50 (NCI-H460)	GI50 (OVCAR-8)	GI50 (RXF 393)	GI50 (SF-295)	GI50 (SK-OV-3)	GI50 (SN12C)	GI50 (TK-10)	GI50 (UO-31)	GI50 (Hs-578T)	GI50 (MDA-MB-435)	GI50 (NCI/ADR-RES)	GI50 (SR)
COc1ccc(C2=C3c4cc(OC)c(OC)cc4CCN3C(=S)SS2)cc1OC	> 100 µM (inactive)	46.5 µM (inactive)	43.5 µM (inactive)	> 100 µM (inactive)	> 100 µM (inactive)	> 100 µM (inactive)	> 100 µM (inactive)	72.8 µM (inactive)	> 100 µM (inactive)	> 100 µM (inactive)	92.3 µM (inactive)	> 100 µM (inactive)	> 100 µM (inactive)	64.7 µM (inactive)	> 100 µM (inactive)	> 100 µM (inactive)				
CCC1(OC(=O)CNC)C(=O)OCc2c1cc1n(c2=O)Cc2cc3ccccc3nc2-1 (centres undefined)	< 0.01 µM (active)	< 0.01 µM (active)	< 0.01 µM (active)	0.127 µM (active)	0.204 µM (active)	0.015 µM (active)	< 0.01 µM (active)	0.0335 µM (active)	< 0.01 µM (active)	0.0126 µM (active)	0.0185 µM (active)	< 0.01 µM (active)	< 0.01 µM (active)	< 0.01 µM (active)	1.29 µM (inactive)	< 0.0125 µM (active)	0.403 µM (active)	0.0234 µM (active)	< 0.01 µM (active)	< 0.01 µM (active)
COC(=O)C(C(=O)C(=O)Nc1c(Cl)cc([N+](=O)[O-])cc1Cl)c1nc2cc(C)c(C)cc2nc1O (centres undefined)	> 100 µM (inactive)	> 100 µM (inactive)	> 100 µM (inactive)	38.9 µM (inactive)	> 100 µM (inactive)	> 100 µM (inactive)	> 100 µM (inactive)	> 100 µM (inactive)	> 100 µM (inactive)	> 100 µM (inactive)	> 100 µM (inactive)	> 100 µM (inactive)	> 100 µM (inactive)	> 100 µM (inactive)	> 100 µM (inactive)	> 100 µM (inactive)				
CC#Cc1c(C#CC)c(OC)c2c(c1OC)C(=O)c1ccccc1C2=O	88.3 µM (inactive)	> 100 µM (inactive)	22.8 µM (inactive)	45.7 µM (inactive)	> 100 µM (inactive)	15.9 µM (inactive)	17.3 µM (inactive)	> 100 µM (inactive)	> 100 µM (inactive)	66.5 µM (inactive)	10.7 µM (inactive)	13.3 µM (inactive)	34.9 µM (inactive)	> 100 µM (inactive)	41.8 µM (inactive)	26 µM (inactive)				46.6 µM (inactive)
